In assay [1] the test system is NIH3T3 fibroblasts. Briefly: Inhibition test of compounds on NIH3T3 fibroblasts (MTT method). Type of assay: cell-based. The conditions noted are these: for Multiple: multiple of activity versus fluorofenidone from IC50 values; for IC50: MTT, relative to fluorofenidone on a certain plate. The method, then: Inhibition Test of Compounds on NIH3T3 Fibroblasts
An MTT method is used and comprises steps of: culturing cells in DMEM culture medium including 5% calf serum and preparing the cells into cell suspension of 3×10^4/ml; inoculating in 96-well plate according to 100 μl/well; transferring new culture medium including compounds with different concentration, fluorofenidone and 1% calf serum after cells are adhered, wherein three repeated wells are provided for each concentration; respectively adding 100 μl of MTT solution in each well after 48 hours and 72 hours of administrating (the culture medium is prepared into 5 mg/ml and kept in dark after filtering), sucking out MTT after 4 hours; adding 150 μl of DMSO which is the dissolving liquid of MTT; after 10 min and MTT is completely dissolved, measuring OD value by ELISA reader; calculating IC50 values of fluorofenidone and measured compounds according to inhibition ratio; calculating multiple of activities of measured compounds and fluorofenidone according to IC50 values of fluorofenidone and measured compounds; and obtaining relative IC50 value of measured compounds according to multiple and IC50 value of fluorofenidone on a certain plate.

In assay [2] the test system is rat unilateral ureteral obstruction renal fibrosis model. Briefly: Rat unilateral ureteral obstruction renal fibrosis model. Type of assay: in vivo. As for the experimental part: Observation of Treatment Effect of Compound 13 in a Rat Unilateral Ureteral Obstruction Renal Fibrosis Model
(1) Randomization: nine rats are divided into three groups at random, namely a normal group (n=3); a model group (n=3) and a treatment group (n=3) treated by compound 13 of 15 mg/kg; three rats are in a hutch; and the experimental animals are adaptively fed for two days. […]
HE stained slices of renal tissues are successively observed in fives fields of view of renal tubulointerstitium on upper left side, upper right side, lower left side, lower right side and middle portion by a low power lens and are evaluated according to eight indexes of renal interstitium lesion: renal tubular epithelial cell vacuolar degeneration, renal tubular ectasia, renal tubular atrophy, red cell cast, protein cast, interstitial edema, interstitial fibrosis and interstitial inflammatory cell infiltration; an average value is calculated as the index of renal tubulointerstitial lesion of the sample; and the evaluation standard is based on the reference of Radford M G Jr, Donadio J V Jr, Bergstralh E J, et al. Predicting renal outcome in IgA nephropathy. […]
Masson staining slices of renal tissues are observed in 20 fields of vision for each sample at random under 400X light microscope; percent of blue-stain collagens in the fields of vision is calculated; an average value is determined after semi-quantitative evaluation: no positive staining, 0; <25%, 1; 25-50%, 2; 50-75%, 3; >75%, 4; and the evaluation standard is based on references. […]

The mark [3] stands for this setting: Mus musculus, NIH3T3, 48 h, 48 hours after administration.
Where [4] appears, read: Mus musculus, NIH3T3, 72 h, 72 hours after administration.

For the compound `CN1CCN(CCCNc2ccc(-n3cc(C(F)(F)F)ccc3=O)c(Cl)c2)CC1` [Compound 1, 1-(2-chloro-4-((3-(4-methylpiperazin-1-yl)propyl)amino)phenyl)-5-(trifluoromethyl)pyridin-2(1H)-one], the figures for the Multiple in assay [1] (48 hours) and in assay [1] (72 hours) were 15.50 and 21.60, respectively. Besides, the figures for the IC50 in assay [1] (setting [3]) and in assay [1] (setting [4]) were 286 µM and 163 µM, respectively.

Turning to `O=c1ccc(C(F)(F)F)cn1-c1ccc(NCCCN2CCOCC2)cc1Cl` [Compound 2, 1-(2-chloro-4-((3-morpholinylpropyl)amino)phenyl)-5-(trifluoromethyl)pyridin-2(1H)-one], the values for the Multiple in assay [1] (48 hours) and in assay [1] (72 hours) were 18.36 and 21.87, respectively. For the same compound, the IC50 (commonly the concentration that inhibits the measured activity by half) in assay [1] (setting [3]) worked out at 241 µM; in assay [1] (setting [4]) it was 161 µM.

Take `CN1CCN(CCNc2ccc(-n3cc(C(F)(F)F)ccc3=O)c(Cl)c2)CC1` [Compound 12, 1-(2-chloro-4-((2-(4-methylpiperazin-1-yl)ethyl)amino)phenyl)-5-(trifluoromethyl)pyridin-2(1H)-one]: the figures for the Multiple in assay [1] (48 hours) and in assay [1] (72 hours) were 13.42 and 33.33, respectively. Further, the half-maximal inhibitory concentration (IC50) in assay [1] (setting [3]) was 330 µM; in assay [1] (setting [4]) it was 106 µM.

With `O=c1ccc(C(F)(F)F)cn1-c1ccc(N(CCO)CCO)cc1Cl` [Compound 6, 1-(4-(N,N-(2-hydroxyethyl)amino)-2-chlorophenyl)-5-(trifluoromethyl)pyridin-2(1H)-one], the values for the Multiple in assay [1] (48 hours) and in assay [1] (72 hours) were 6.91 and 6.00, respectively. The IC50 in assay [1] (setting [3]) stood at 641 µM; in assay [1] (setting [4]) it was 587 µM.

On to `O=c1ccc(C(F)(F)F)cn1-c1ccc(NCCN2CCN(CCO)CC2)cc1Cl` [Compound 13, 1-(2-chloro-4-((2-(4-(2-hydroxyethyl)piperazin-1-yl)ethyl)amino)-phenyl)-5-(trifluoromethyl)pyridin-2(1H)-one], for which the Multiple in assay [1] (48 hours) amounted to 44.14; in assay [1] (72 hours) it was 57.20. In addition, the IC50 in assay [1] (setting [3]) was 100 µM; in assay [1] (setting [4]) it was 62 µM. Further, in assay [2] (15 mg/kg), the “Treatment effect on renal fibrosis (conclusion)” value is given as “can effectively treat renal fibrosis”. Also, the “Score (X ± S), renal interstitium collagens of left kidneys, MASSON staining” value in assay [2] (15 mg/kg intragastric once per day for 12 days, SD rats n=3, model group 2.45 ± 0.38, normal group 0.25 ± 0.00, p < 0.01 vs model) is reported as 1.52 ± 0.16^⋆⋆**. In assay [2] (15 mg/kg intragastric once per day for 12 days, SD rats n=3, model group 9.00 ± 1.00, normal group 0.33 ± 0.12, p < 0.01 vs model), the “Score (X ± S), index of renal tubulointerstitial lesions of obstruction kidneys, HE staining” value is 7.00 ± 0.35^⋆⋆**.

Regarding `Cl.O=c1ccc(C(F)(F)F)cn1-c1ccc(NCCCN2CCCCC2)cc1Cl` [Compound 7, 1-(2-chloro-4-(((3-piperidin-1-yl)propyl)amino)phenyl)-5-(trifluoromethyl)pyridin-2(1H)-one hydrochloride], the Multiple in assay [1] (48 hours) was determined as 17.09; in assay [1] (72 hours), 71.17. Further, the IC50 in assay [1] (setting [3]) was 259 µM; in assay [1] (setting [4]), 49 µM.

In the case of `O=c1ccc(C(F)(F)F)cn1-c1ccc(NCCCN2CCCCC2)cc1Cl` [Compound 3, 1-(2-chloro-4-((3-piperidin-1-yl)propylamino)phenyl)-5-(trifluoromethyl)pyridin-2(1H)-one], the IC50 in assay [1] (48 hours after administration) was 238 µM; in assay [1] (72 hours after administration), 65 µM. Besides, the Multiple in assay [1] (48 hours) is 18.60; in assay [1] (72 hours), 54.0.

Regarding `O=c1ccc(C(F)(F)F)cn1-c1ccc(NCCO)cc1Cl` [Compound 5, 1-(2-chloro-4-((2-hydroxyethyl)amino)phenyl)-5-(trifluoromethyl)pyridin-2(1H)-one], the Multiple is 3.21 in assay [1] (48 hours) and 5.57 in assay [1] (72 hours). The figures for the IC50 in assay [1] (setting [3]) and in assay [1] (setting [4]) were 1380 µM and 632 µM, respectively.

As to `O=c1ccc(C(F)(F)F)cn1-c1ccc(NCCN2CCCCC2)cc1Cl` [Compound 10, 1-(2-chloro-4-((2-(piperidyl-1-yl)ethyl)amino)phenyl)-5-(trifluoromethyl)pyridin-2(1H)-one], the Multiple in assay [1] (48 hours) was 20.73; in assay [1] (72 hours), 56.50. The half-inhibitory concentration (IC50) in assay [1] (setting [3]) amounted to 214 µM; in assay [1] (setting [4]) it was 62 µM.

`O=c1ccc(C(F)(F)F)cn1-c1ccc(NCCN2CCOCC2)cc1Cl` [Compound 11, 1-(2-chloro-4-((2-morpholinylethyl)amino)-phenyl)-5-(trifluoromethyl)pyridin-2(1H)-one]: the Multiple was found to be 25.50 in assay [1] (48 hours) and 62.50 in assay [1] (72 hours). The IC50 in assay [1] (setting [3]) turned out to be 174 µM; in assay [1] (setting [4]), 56 µM.

Regarding `O=c1ccc(C(F)(F)F)cn1-c1ccc(NCCOCCO)cc1Cl` [Compound 8, 1-(2-chloro-4-((2-(2-hydroxyethoxy)ethyl)amino)phenyl)-5-(trifluoromethyl)pyridin-2(1H)-one], the Multiple in assay [1] (48 hours) stood at 9.09; in assay [1] (72 hours), 10.59. Further, the half-maximal inhibitory concentration (IC50) in assay [1] (setting [3]) came to 487 µM; in assay [1] (setting [4]) it was 332 µM.

For `CCCCOCCCNc1ccc(-n2cc(C(F)(F)F)ccc2=O)c(Cl)c1` [Compound 4, 1-(4-((3-butoxypropyl)amino)-2-chlorophenyl)-5-(trifluoromethyl) pyridin-2(1H)-one], the values for the Multiple in assay [1] (48 hours) and in assay [1] (72 hours) were 6.31 and 11.31, respectively. Also, the half-inhibitory concentration (IC50) in assay [1] (setting [3]) amounted to 702 µM; in assay [1] (setting [4]) it was 311 µM.

The record behind these values is patent publication US8426407B2, “Preparation of 1-(substituted aryl)-5-trifluoromethyl-2-(1H)pyridone compounds and salts thereof and their applications” (Central South University, priority 2009, dated 2013).
